{"source": "patent US6465476B1", "about": "“Immuno-modulator exhibiting antimicrobial and anti-mycrobacterial activities, method for producing the same and pharmaceutical preparation” (priority 1997, dated 2002)", "key": {"white unbred mice": {"tested_on": "white unbred mice", "test": "Toxicity on white unbred mice by Litchfild-Wilkokson's procedure", "assay_type": "in vivo", "settings": "white unbred mice 18 to 20 g, sharp experiment"}, "[1]": {"tested_on": "tuberculosis mycobacteria H37Rv (USSR H37Rv)", "assay_type": "in vivo, tuberculosis mycobacteria; mice of the CBA line", "settings": "for Damage index / Life duration / Weight of the lung: USSR H37Rv"}, "[2]": {"tested_on": "human mononucleator cells (T-lymphocytes)", "test": "Proliferation of T-lymphocytes in cell culture in vitro (3H-thymidine)", "assay_type": "cell-based", "description": "The influence of the test compound on the proliferation of T-lymphocytes was studied on a model in vitro. To this end human mononucleator cells were preliminarily incubated during three hours in the presence of different concentrations of each test substance. Each test substance was studied over a wide range of its concentrations, that is from […]. As a negative control there was added a physiological 0.9 percent solution of NaCl. The results of the influence of novel compoubds on the intensity of proliferation of human lymphocytes in the cell culture in vitro are represented in Table 3."}, "Solubility": {"test": "Solubility", "assay_type": "physicochemical", "description": "It is soluble in dimethylformamide, dimethylsulfoxide, deluted acids and alkalies; f. p.=255-256° C. The structure of matter is confirmed by the data of PMR-spectroskopy."}, "agent of leprosy": {"tested_on": "agent of leprosy", "test": "Example 1, patient X, border-line tuberculoid leprosy", "assay_type": "in vivo, human", "design": "histological index: scale not given here; Leucocytes / T-lymphocytes: unit not given here", "from_the_text": "The patient X was admitted to a clinic with a diagnosis “border-line tuberculoid leprosy”. They had been considering themself ill for two years. They supposed that they had been infected in Africa where they had worked 8 years ago and used to receive vegetables from lepers. On the skin of the back, on the skin of the lateral abdiminal surfaces, on the left hip and shin, the left temple area of the head there were yellowish-reddish papules with a rust-coloured hue and sized 1.5 times 2 cm to 4 times 6 cm with no sensitivity in ther center. Disorder of sensitivity was noted along the length of peroneal and elbow nerves. The agent of leprosy was neither detected in the scrape from the nasal mucosa nor in the lymph on the bacterioscopic investigation. […] In the surface layers of derma there were multiple infiltrates and in the deeper layers of the skin there were focal and strand infiltrates. The histological index was equal to 1.1. The patient was prescribed a treatment in the form of isophonum to be taken internally 0.2 g each time twice a day. After 3.5 months all the elements (plaques) on the skin completely resolved and were replaced by hyperpigmented spots which after 4 months completely gained the colour of a normal skin. […] The patient was not hospitalyzed and received home treatment without interrupting their work. […] The histological index equaled 0. When histological investigation was repeated after 7 months with the purpose of transfering the patient under dispensary observation, the agent of leprosy was not detected either, in the surface layer of the derma were noted some small infiltrates out of lymphocytes with epithelioid cells in the form of accumulations.\nIn deeper layers of the skin there were small infiltrates around the blood vessels. It was decided to prolong the treatment of the patient for 6 months by administering isophonum internally in combination with diuciphonum."}, "Storage stability": {"test": "Storage stability", "assay_type": "physicochemical", "from_the_text": "More precisely, isophonum is produced by boiling equimolecular amounts of isonicotinic acid hydrazide and 6-methyluracyl-5-sulfochloride in anhydrous acetonitrile. The samples of isophonum maintain their properties during the period of time of 3 years."}, "[3]": {"tested_on": "Kyp-4 strain of leprosy mycobacteria", "test": "Antileprous activity in mice infected by Shepard's procedure", "assay_type": "in vivo, leprosy mycobacteria; male mice of the CBA line", "from_the_text": "Antileprous activity of isophonum as compared with that of diuciphonum was studied on male mice of the CBA line infected with the laboratory Kyp-4 strain of leprosy mycobacteria taken in an amount of 5000 and introduced intraplantedly by Shepard's procedure. The experiment lasted six months from the 7th of February to the […] 1996. Observed were 5 groups of mice with 15 mice in each group. All the animals were kept under the same conditions of the vivarium on a standard diat.\nThe first group (controls): during six months of the experiment the mice received 0.5 ml of a starch suspension through a probe five times a week. After six months the animals were killed through a cervical dislocation of backbone, the organs were subjected to a bacterioscopic investigation, no pathologic deviations characteristic of any of the groups were found. The bacteriscopic investigation of the infected site was carried out by grinding the mouse foot in 2 ml of 0.1 percent solution of albumin, making a smear from 0.01 ml of the suspenstion and painting it by Ziel-Nielson's procedure and counting the number of leprosy micobacteria in 60 fields of vision to determine the number of micobacteria per mouse in each group."}, "macrophages": {"tested_on": "macrophages", "test": "Phagocytic activity of macrophages (clearance from blood)", "assay_type": "in vivo, mice", "settings": "500 μg per mouse per os", "from_the_text": "The influence of the preparations in question on the phagocytic activity of macrophages was studid from clearence of the carcass in blood taken from the retroorbital sinus of mice that received the preparations per os. The results were estimated on the phagocytic index α (see Table 4)."}}, "note": "Like-named read-outs stand apart in the source and are kept apart here."}
{"smiles": "Cc1[nH]c(=O)[nH]c(=O)c1S(=O)(=O)NNC(=O)c1ccncc1.O", "note": "[Isophonum, N-(6-methyl-2,4-dioxo-1,2,3,4-tetrahydro-5-pyrimidinsulfon)-N′-isonicotinoylhydrazide hydrate]", "values": [{"measurement": "toxicity", "setting": "white unbred mice", "result": "exceed 7000 mg/kg"}, {"measurement": "Damage index", "setting": "[1]; 100 μg per mouse", "result": "1.91 ± 0.18"}, {"measurement": "Life duration", "setting": "[1]; 100 μg per mouse", "result": "34.6 ± 4.8"}, {"measurement": "Weight of the lung", "setting": "[1]; 100 μg per mouse", "result": "507.0 ± 48.4"}, {"measurement": "Damage index", "setting": "[1]; 200 μg per mouse", "result": "1.81 ± 0.21"}, {"measurement": "Life duration", "setting": "[1]; 200 μg per mouse", "result": "35.7 ± 5.2"}, {"measurement": "Weight of the lung", "setting": "[1]; 200 μg per mouse", "result": "495.4 ± 56.1"}, {"measurement": "antituberculous action", "setting": "[1]; mouse, in vivo", "result": "pronounced antituberculous action"}, {"measurement": "Intensity of involvement of 3H-thymidine in DNA of cultivated cells, PHA-activated", "setting": "[2]; 0.01 μg/ml", "result": 19995, "unit": "impulse per minute"}, {"measurement": "Intensity of involvement of 3H-thymidine in DNA of cultivated cells, Spontaneous", "setting": "[2]; 0.01 μg/ml", "result": 901, "unit": "impulse per minute"}, {"measurement": "Intensity of involvement of 3H-thymidine in DNA of cultivated cells, PHA-activated", "setting": "[2]; 0.03 μg/ml", "result": 24736, "unit": "impulse per minute"}, {"measurement": "Intensity of involvement of 3H-thymidine in DNA of cultivated cells, Spontaneous", "setting": "[2]; 0.03 μg/ml", "result": 1152, "unit": "impulse per minute"}, {"measurement": "Intensity of involvement of 3H-thymidine in DNA of cultivated cells, PHA-activated", "setting": "[2]; 0.1 μg/ml", "result": 37890, "unit": "impulse per minute"}, {"measurement": "Intensity of involvement of 3H-thymidine in DNA of cultivated cells, Spontaneous", "setting": "[2]; 0.1 μg/ml", "result": 1818, "unit": "impulse per minute"}, {"measurement": "Intensity of involvement of 3H-thymidine in DNA of cultivated cells, PHA-activated", "setting": "[2]; 1 μg/ml", "result": 25455, "unit": "impulse per minute"}, {"measurement": "Intensity of involvement of 3H-thymidine in DNA of cultivated cells, Spontaneous", "setting": "[2]; 1 μg/ml", "result": 1272, "unit": "impulse per minute"}, {"measurement": "Intensity of involvement of 3H-thymidine in DNA of cultivated cells, PHA-activated", "setting": "[2]; 5 μg/ml", "result": 20120, "unit": "impulse per minute"}, {"measurement": "Intensity of involvement of 3H-thymidine in DNA of cultivated cells, Spontaneous", "setting": "[2]; 5 μg/ml", "result": 871, "unit": "impulse per minute"}, {"measurement": "optimal concentration", "setting": "[2]; proliferation of T-cells", "result": 0.1, "unit": "µg/mL"}, {"measurement": "mitogenetic activity", "setting": "[2]; spontaneous proliferation", "result": "possesses the proper mitogenetic activitiy of its own"}, {"measurement": "solubility in dimethylformamide, dimethylsulfoxide, deluted acids and alkalies", "setting": "Solubility", "result": "soluble"}, {"measurement": "solubility in water or usual organic solvents", "setting": "Solubility", "result": "difficult to dissolve"}, {"measurement": "time after which all the elements (plaques) on the skin completely resolved", "setting": "agent of leprosy; 0.2 g twice a day", "result": 3.5, "unit": "months"}, {"measurement": "histological index", "setting": "agent of leprosy; 3 months later, 0.2 g twice a day", "result": 0}, {"measurement": "histological index", "setting": "agent of leprosy; before treatment", "result": 1.1}, {"measurement": "B-lymphocytes, %", "setting": "agent of leprosy; day 0 (before treatment)", "result": 12, "unit": "%"}, {"measurement": "Leucocytes", "setting": "agent of leprosy; day 0 (before treatment)", "result": 6.1}, {"measurement": "Lymphocytes, %", "setting": "agent of leprosy; day 0 (before treatment)", "result": 18, "unit": "%"}, {"measurement": "T-helpers, %", "setting": "agent of leprosy; day 0 (before treatment)", "result": 50, "unit": "%"}, {"measurement": "T-lymphocytes", "setting": "agent of leprosy; day 0 (before treatment)", "result": 57}, {"measurement": "T-suppressors", "setting": "agent of leprosy; day 0 (before treatment)", "result": 4}, {"measurement": "B-lymphocytes, %", "setting": "agent of leprosy; day 180, 0.2 g twice a day", "result": 17, "unit": "%"}, {"measurement": "Leucocytes", "setting": "agent of leprosy; day 180, 0.2 g twice a day", "result": 6.8}, {"measurement": "Lymphocytes, %", "setting": "agent of leprosy; day 180, 0.2 g twice a day", "result": 30, "unit": "%"}, {"measurement": "T-helpers, %", "setting": "agent of leprosy; day 180, 0.2 g twice a day", "result": 63, "unit": "%"}, {"measurement": "T-lymphocytes", "setting": "agent of leprosy; day 180, 0.2 g twice a day", "result": 80}, {"measurement": "T-suppressors", "setting": "agent of leprosy; day 180, 0.2 g twice a day", "result": 27}, {"measurement": "Phagocytosis", "setting": "agent of leprosy; first column (no day head; presumably day 0)", "result": 30}, {"measurement": "Phagocytosis", "setting": "agent of leprosy; second column (no day head; presumably day 180)", "result": 5}, {"measurement": "period of time during which samples maintain their properties", "setting": "Storage stability", "result": 3, "unit": "years"}, {"measurement": "activity against the leprosy mycobacteria", "setting": "[3]; 2.5 mg/kg", "result": "bactericide activity"}, {"measurement": "Percentage of infected animals", "setting": "[3]; after six months, isophonum dose 2.5 mg/kg", "result": 0, "unit": "%"}, {"measurement": "Phagocytic index", "setting": "macrophages", "result": "6.55 ± 0.06"}, {"measurement": "stimulation of the phagocytic activity of macrophages", "setting": "macrophages", "result": 56, "unit": "%"}, {"measurement": "Phagocytic index, percent of controls", "setting": "macrophages; controls 100%", "result": "(156%)"}]}
